Square brackets hold non-standard residues; d marks the D form. Peptide text beside a SMILES is read from it. * marks the point of attachment. 5FAM = O=C1OC2(c3ccc(O)cc3Oc3cc(O)ccc32)c2ccc(C(=O)*)cc21; pS = N[C@@H](COP(=O)(O)O)C(=O)O; Ahx = NCCCCCC(=O)O

Assay type in all cases: binding
Experiment [1] has as its target T1, 14-3-3η (Homo sapiens, UniProt Q04917).
T1 construct: full length proteins were concentrated by centrifugation; His tag (pProEx HTb vector) (N); made in house; host or cells: E. coli BL21(DE3)
T1 sequence (Q04917 1-246): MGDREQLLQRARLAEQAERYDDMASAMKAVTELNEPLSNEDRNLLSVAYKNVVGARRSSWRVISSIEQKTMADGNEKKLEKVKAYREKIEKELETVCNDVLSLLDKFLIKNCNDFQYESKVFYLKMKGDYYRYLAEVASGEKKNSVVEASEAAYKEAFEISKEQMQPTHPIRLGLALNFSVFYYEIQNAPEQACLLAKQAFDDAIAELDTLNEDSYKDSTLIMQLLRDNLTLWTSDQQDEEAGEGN
Put plainly: Fluorescence anisotropy (FA) competition assay against tracer hDMX361–374^pSer367*. To be noted: Fig. 2b experiment; hydrazide equilibrated with 5 eq. aldehyde, serially diluted; 50 nM hDMX361–374^pSer367*, 1 μM 14-3-3η, 50 mM NH4OAc, 10 mM aniline, 1 mM DTT, pH 6.5. The protocol: A fluorescence anisotropy (FA) competition assay was subsequently carried out using conditions previously found suitable for acylhydrazone formation (pH 6.5, 50 mM NH4OAc, 10 mM aniline) with added DTT (1 mM) to supress disulfide formation. hDMX361–369^pSer367Gly-hydrazide was used to compete with a tracer peptide: hDMX361–374^pSer367* for binding to 14-3-3η (Fig S2, ESI ^†). […] Initial attempts to screen in cocktails, established the aldehydes had no affect on their own (Fig. S3, ESI ^†). We then performed an assay where each aldehyde was screened individually with hDMX361–369^pSer367Gly-hydrazide. A decrease in anisotropy can be attributed to a particular hydrazone product, avoiding the additional step of product identification e.g. by HRMS, and, combines the equilibration step for hydrazone formation with 14-3-3η screening (Fig. 2a). […] To confirm the single-concentration results, a competition assay was performed (Fig. 2b). hDMX361–369^pSer367Gly-hydrazide was equilibrated with 5 equivalents of each aldehyde (product formation confirmed by LC-MS, see Fig. S4, ESI ^†), and serially diluted against the tracer peptide (hDMX361–374^pSer367*) and 14-3-3η protein.
Fig. 2 Dynamic ligation screening based on hDMX361–369^pSer367Gly-hydrazide (a) Anisotropy values of individually screened hydrazones (relative to buffer, zero activity negative control in grey), hDMX361–374^pSer367 (blue) and hDMX361–369^pSer367Gly-hydrazide (red) as positive controls with hits (hDMX361–369^pSer367Gly-hydrazone-FC45 and hDMX361–369^pSer367Gly-hydrazone-SIG17) highlighted in orange boxes (10 μM acetylated hydrazide peptide mixed with 5 eq. of aldehyde, 1 μM 14-3-3η, 50 nM hDMX361–374^pSer367*, 50 mM NH4OAc, 10 mM aniline and 1 mM DTT) (b) competition FA curves for hydrazones taken forward as hits (50 nM hDMX361–374^pSer367*, 1 μM 14-3-3η in 50 mM NH4OAc, 10 mM aniline and 1 mM DTT).
Fig. 3 Dynamic ligation screening based on hDMX361–370^pSer367Gly-hydrazide (a) anisotropy values of individually screened hydrazones (relative to buffer, zero activity negative control in grey), hDMX361–374^pSer367 (blue) and hDMX361–370^pSer367Gly-hydrazide (red) as positive controls with hits highlighted in black boxes (10 μM acetylated hydrazide peptide mixed with 5 eq. of aldehyde, 1 μM 14-3-3η, 50 nM hDMX361–374^pSer367*, 50 mM NH4OAc, 10 mM aniline and 1 mM DTT) (b) representative competition FA curves for hydrazones taken forwards as hits (50 nM hDMX361–374^pSer367*, 1 μM 14-3-3η in 50 mM NH4OAc, 10 mM aniline and 1 mM DTT). […]
(§1) Screening was performed using fluorescence anisotropy competition assay, in 50 mM NH4Ac pH 6.5 buffer containing 10 mM aniline, 1 mM DTT. […]
Background: Polarisation of emitted light reports the rotation of a fluorescent probe.

The target in experiment [2] is T1, 14-3-3η. Put plainly: Dynamic ligation screen, FA competition at single concentration. The following applies: 10 μM acetylated hydrazide peptide with 5 eq. aldehyde, 24 h room temperature, 1 μM 14-3-3η, 50 nM hDMX361–374^pSer367*, 50 mM NH4OAc, 10 mM aniline, 1 mM DTT; duplicates. The protocol: A fluorescence anisotropy (FA) competition assay was subsequently carried out using conditions previously found suitable for acylhydrazone formation (pH 6.5, 50 mM NH4OAc, 10 mM aniline) with added DTT (1 mM) to supress disulfide formation. hDMX361–369^pSer367Gly-hydrazide was used to compete with a tracer peptide: hDMX361–374^pSer367* for binding to 14-3-3η (Fig S2, ESI ^†). […] Initial attempts to screen in cocktails, established the aldehydes had no affect on their own (Fig. S3, ESI ^†). We then performed an assay where each aldehyde was screened individually with hDMX361–369^pSer367Gly-hydrazide. A decrease in anisotropy can be attributed to a particular hydrazone product, avoiding the additional step of product identification e.g. by HRMS, and, combines the equilibration step for hydrazone formation with 14-3-3η screening (Fig. 2a). […]
Figure S3. […] Aldehydes were assessed as […]
as §1
Screening was performed using 10 μM acetylated hydrazide peptide mixed with 5 eq. of aldehyde, 1 μM 14-3-3η,. […] After 24 hours, hDMX tracer peptide was added to a concentration of 50 nM to the experiment wells or equal amount of buffers was added to the blanks and the plate was read immediately. […]

Experiment [3] concerns the target T1, 14-3-3η. The experiment can be described thus: FA direct titration of tracer peptide. To be noted: tracer 50 nM, 10 mM HEPES, 150 mM NaCl, 0.1% Tween 20, 0.1% BSA, pH 7.4; triplicates; read-out: Kd (14-3-3 affinity by FA). The protocol: To explore the effect of non-linked fragments, 5 commercially available fragments with similarity to the reduced aldehyde form of COOH4, FC50 and FC32; analogues bearing alcohol or methyl groups in place of the aldehyde (Fig. 3c) were assessed. For consistency a modified tracer peptide was used (hDMX361–370^pSer367Gly* i.e. analogous to the screening peptide but bearing FAM-Ahx). […] Stabilization of the peptide/14-3-3η interaction was observed as the anisotropy increased at the highest fragment concentration, consistent with millimolar affinities (Fig. 3c).
Figure S7. Direct titration of peptide for analysis of fragment stabilizing effects ( hDMX361- […]
(1 picture or pasted object on this page, not shown here)
Peptides were cleaved and side-chain deprotected using ‘Reagent K’ […]
Direct titration assay: All assays were performed in 384 well plates (each experiment was run in triplicates) and data were collected by Perkin Elmer EnVision 2013 plate reader with excitation at 480 nm (30 nm bandwidth), polarised dichroic mirror at 505 nm and emission at 535 nm (40 nm bandwidth, S and P polarised). […] A ½ fold dilution series was performed in the titration, with plates read after 30 min, 4 h and 20-24 h. […]
Collected data were processed in Microsoft Excel using the equations bellow. Total intensity I and anisotropy r were calculated using Equations 1 and 2 for each well. […]

As to `CC[C@H](C)[C@H](NC(=O)[C@@H](NC(=O)[C@H](CCCNC(=N)N)NC(=O)[C@H](CCCNC(=N)N)NC(=O)[C@H](CS)NC(=O)[C@H](CC(=O)O)NC(C)=O)[C@@H](C)O)C(=O)N[C@@H](COP(=O)(O)O)C(=O)N[C@@H](C)C(=O)N1CCC[C@H]1C(=O)NCC(=O)N/N=C/c1scc(Br)c1Br` [hDMX361–369^pSer367Gly-hydrazone-SIG17] (HELM PEPTIDE1{[ac].D.C.R.R.T.I.[O=C([C@H](COP(=O)(O)O)N[*:1])[*:2]].A.P.G.[Brc1csc(/C=N/N[*:1])c1Br]}$$$$V2.0), on 14-3-3η [1], the IC50 (usually the midpoint of a concentration-inhibition curve) came to 13.7 ± 0.5 µM. Besides, the “Anisotropy of individually screened hydrazones relative to controls (hit call)” value on 14-3-3η [2] is “hits”.
On to `CC[C@H](C)[C@H](NC(=O)[C@@H](NC(=O)[C@H](CCCNC(=N)N)NC(=O)[C@H](CCCNC(=N)N)NC(=O)[C@H](CS)NC(=O)[C@H](CC(=O)O)NC(=O)CCCCCNC(=O)c1ccc2c(c1)C(=O)OC21c2ccc(O)cc2Oc2cc(O)ccc21)[C@@H](C)O)C(=O)N[C@@H](COP(=O)(O)O)C(=O)N[C@@H](C)C(=O)N1CCC[C@H]1C(=O)N[C@H](C(=O)NCC(N)=O)C(C)C` [hDMX361–370^pSer367Gly*] ({5FAM-Ahx}-DCRRTI[pS]APVG-NH2), for which the Kd (in general, the free concentration of one partner at which half of the binding sites on the other are occupied at equilibrium, for simple one-to-one binding) on 14-3-3η [3] is 0.172 ± 0.0093 µM.

(Values after article PMC9092428, “Towards identification of protein–protein interaction stabilizers via inhibitory peptide-fragment hybrids using templated fragment ligation” (RSC Chemical Biology, 2022).)
